Test results published in article PMC5937995 (Bioorganic & medicinal chemistry, 2018).
Each block holds one compound with its values, some of them ahead of it. Residues, ends and D or L forms follow the SMILES beside them.

Legend:
human platelets = details: cited from earlier work; for IC50: read-out: potency in P-selectin assay, human platelets
[1] = cited from earlier work
PAR1 [2] = molecular target: T1, PAR1 (Homo sapiens, UniProt P25116); test: PAR1
T1 sequence (P25116 22-425): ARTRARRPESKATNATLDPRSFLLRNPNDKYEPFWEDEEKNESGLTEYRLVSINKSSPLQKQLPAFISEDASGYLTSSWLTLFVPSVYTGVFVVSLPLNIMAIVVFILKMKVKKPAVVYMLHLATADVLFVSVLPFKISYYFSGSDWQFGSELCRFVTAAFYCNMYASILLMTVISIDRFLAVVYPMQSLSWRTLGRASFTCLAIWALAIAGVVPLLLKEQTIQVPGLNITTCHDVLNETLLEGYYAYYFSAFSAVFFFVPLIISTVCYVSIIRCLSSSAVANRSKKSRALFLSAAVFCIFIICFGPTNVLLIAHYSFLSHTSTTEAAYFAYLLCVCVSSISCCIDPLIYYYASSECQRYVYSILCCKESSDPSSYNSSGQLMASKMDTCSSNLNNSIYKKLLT

Aqueous solubility = format: physicochemical; details: turbid suspensions observed at high concentrations
PAR1 [3] = details: platelet membranes; cited from earlier work
cardiac infarct size = details: murine myocardial ischemia-reperfusion injury; cited from earlier work
PAR1 [4] = details: cited from earlier work
[5] = 5 μM TFLLRN-NH2, EA.hy926 cells

SMILES: CC(C)CC(=O)Nc1cccc(NC(=O)c2ccccc2Br)c1 [CJD-125]
- potency relative to ML161 in platelet P-selectin assay (human platelets): equipotency
- plasma stability relative to ML161 [1]: improved plasma stability
- activity in PAR1 iCa2+ assay (in words) (PAR1 [2]; [5]): less potent than ML161 and did not give a good concentration-response

- activity in PAR1 iCa2+ assay (in words) (PAR1 [2]; [5]): only modest activity
SMILES: CCCC(=O)Nc1cccc(NC(=O)c2ccccc2N=[N+]=[N-])c1 [DG-5, 2-Azido-N-(3-butyramidophenyl)benzamide]

- fold less potent than RWJ-58259 (PAR1 [2]; [5]): 15 fold
SMILES: C#CCCC(=O)NCC[C@H](NC(=O)[C@H](Cc1ccc(F)c(F)c1)NC(=O)Nc1ccc2c(CN3CCCC3)nn(Cc3c(Cl)cccc3Cl)c2c1)C(=O)NCc1ccccc1 [DG-207, N-((S)-4-(Benzylamino)-3-((S)-2-(3-(1-(2,6-dichlorobenzyl)-3-(pyrrolidin-1-ylmethyl)-1H-indazol-6-yl)ureido)-3-(3,4-difluorophenyl)propanamido)-4-oxobutyl)pent-4-ynamide]

- activity in PAR1 iCa2+ assay (in words) (PAR1 [2]; [5]): poorly active
SMILES: CCCCC(=O)Nc1cccc(NC(=O)c2ccccc2Br)c1 [EMG-23, 2-Bromo-N-(3-pentanamidophenyl)benzamide]

SMILES: CCCC(=O)Nc1cccc(NC(=O)c2ccccc2Br)c1 [ML161]
- aqueous solubility (Aqueous solubility): low aqueous solubility
- mode of inhibition of SFLLRN-NH2 (human platelets; platelet P-selectin assay): non-competitive inhibitor
- IC50 (human platelets): 260 nM
- inhibition of [3H]TRAP binding (PAR1 [3]): does not significantly inhibit binding
- cardiac infarct size (cardiac infarct size): significantly decreased

- activity in PAR1 iCa2+ assay (in words) (PAR1 [2]; [5]): only modest inhibition of PAR1
SMILES: C#CCCC(=O)Nc1cccc(NC(=O)c2ccccc2Br)c1 [RR-10, 2-Bromo-N-(3-(pent-4-ynamido)phenyl)benzamide]

SMILES: CCCCNc1cccc(NC(=O)c2ccccc2Br)c1 [RR-90]
- IC50 (human platelets): 340 nM

SMILES: NCC[C@H](NC(=O)[C@H](Cc1ccc(F)c(F)c1)NC(=O)Nc1ccc2c(CN3CCCC3)cn(Cc3c(Cl)cccc3Cl)c2c1)C(=O)NCc1ccccc1 [RWJ-56110]
- mode of inhibition of radiolabeled PAR1 activating peptide binding (PAR1 [4]): competitive inhibitor

- EC50 (PAR1 [2]): 4800 nM
SMILES: CC(C)C[C@H](NC(=O)[C@H](CC(C)C)NC(=O)[C@H](Cc1ccccc1)NC(=O)[C@@H](N)[C@@H](C)O)C(=O)N[C@@H](CCCNC(=N)N)C(=O)N[C@@H](CC(N)=O)C(N)=O [TFLLRN-NH2, reference compound] (H-TFLLRN-NH2)

- aqueous solubility (Aqueous solubility): low aqueous solubility
- IC50 (PAR1 [2]): 32 nM
- % Inhibition (PAR1 [2]; in presence of 5 μM TFLLRN-NH2, EA.hy926 cells): 95%
SMILES: CCOC(=O)N[C@@H]1CC[C@@H]2[C@@H](C1)C[C@H]1C(=O)O[C@H](C)[C@H]1[C@H]2/C=C/c1ccc(-c2cccc(F)c2)cn1 [Vorapaxar, reference compound]
